Measurements taken from patent US20250100977A1, “MERCAPTOPYRIMIDINE COMPOUNDS THAT INHIBIT NONHOMOLOGOUS END JOINING AND METHODS THEREOF” (INDIAN INSTITUTE OF SCIENCE, priority 2021, published 2025).
Where “and” joins values, the source holds several entries; their conditions need not be identical. Identical values can stand only once. Like-named read-outs stand apart in the source and are kept apart here.

What was measured:
HCT116 = assay: Cytotoxicity in HCT116; format: cell-based; settings: Homo sapiens, HCT-116; Table 2; read-out: IC50 in cancer cell lines, HCT116
Method: (§1) Ligase IV specificity of the compounds of the present invention inside the cells were also determined using Ligase IV knock out (KO) cell line N114 compared to the wild type Nalm6 (Table 2, FIGS. 5C, D, E and F). […] Table 1 showing IC50 of SCR7 derivatives in cancer cell lines Nalm6 and HeLa. IC50 was calculated using GraphPad Prism software from the percentage of viable cells following treatment with the compounds at 48 h. Table 2 showing IC50 of SCR116 and SCR132 in a panel of 16 cancer cell lines.

[1] = test system: Dalton's Lymphoma (DLA) tumor; assay: Mice allograft model, Dalton's Lymphoma (DLA); format: in vivo; settings: for Tumor burden: oral, 15 and 25 mg/kg, pilot
Method: (§2) The effect of oral dose of the compounds of the present disclosure on mice Erlich Ascites Carcinoma (EAC) and Dalton's Lymphoma (DLA) tumors were also evaluated (FIGS. 10A-F).

L1210 = assay: Cytotoxicity in L1210; format: cell-based; settings: Mus musculus, L1210; Table 2; read-out: IC50 in cancer cell lines, L1210
Method: as §1

[2] = test system: Erlich Ascites Carcinoma (EAC) tumor; assay: Mice allograft model, Erlich Ascites Carcinoma (EAC); format: in vivo; settings: for Tumor progression: intraperitoneal; for Tumor progression / Tumor load: alternate days; for Tumor load: oral, 8 doses, pilot
Method: The compounds of the present disclosure were evaluated for the anti-cancer efficacy starting from lower concentrations using Mice allograft model. Mice allograft model was developed by injecting Erlich Ascites Carcinoma (EAC) cell lines in the thigh region of the mice followed by treatment with the compounds via intraperitoneal and oral routes on alternate days (FIG. 9C).
as §2

HeLa = assay: Cytotoxicity (viable cells) in HeLa; format: cell-based; settings: read-out: IC50 in cancer cell lines, HeLa
Method: (§3) The compounds of the present invention were screened initially in leukemic and cervical cancer cell lines (Table 1). […] In cervical cancer cell line HeLa, IC50 was 5 and 2 μM, respectively for SCR116 and SCR132 (FIG. 5A-B).
as §1

Ligase III/XRCC1 = biological target: T1, Ligase III/XRCC1 (Homo sapiens, UniProt P49916); assay: Inhibition of end joining by purified Ligase III/XRCC1; format: biochemical; settings: 50, 100, 200, 500, 1000 μM
T1 construct: made in house
Method: The compounds of the present invention were analysed for inhibition of end joining with purified Ligase I (FIG. 3A) and Ligase III/XRCC1 (FIG. 3F). The compounds were incubated with either purified Ligase I (FIG. 3B-E) or with Ligase III/XRCC1 (FIGS. 3G-J) in suitable NHEJ buffer at 25° C. for 30 min, followed by addition of radiolabeled DNA, and further incubation for 1 h at 25° C. Products were purified using phenol: chloroform, and run on denaturing PAGE.
Effects of these compounds on NHEJ and Ligase IV mediated joining were evaluated (FIG. 4A-K). The reactions were terminated by EDTA (10 mM), products were purified using phenol/chloroform, precipitated with chilled ethanol and glycogen, and resolved on 8% denaturing PAGE. The gel was dried, exposed, and signal was detected using phosphor Imager FLA9000 (Fuji, Japan), and quantified in MultiGauge software expressed as Photo Stimulated Luminescence Units (PSLU). Inhibition of end joining was reported at 200 μM and 100 μM, respectively for SCR116 and SCR132 (FIGS. 4A, B, C and D), with >50% inhibition at 200 and 100 μM concentrations, respectively. […] FIG. 4K depict the purification profile of Ligase IV and XRCC4. […]

HeLa cells = assay: Neutral comet assay in HeLa cells; format: cell-based; settings: 24 h; SCR116 5 μM, SCR132 2 μM; radiation 0.5 Gy; vs control
Method: FIG. 8(A-B) depicts accumulation of DSBs inside cells following treatment with the compounds. A. Representative images for HeLa cells subjected to neutral comet assay following treatment with SCR116 and SCR132 for 24 h. […] FIG. 8C, D are representative images for Nalm6 cells (C) and N114 cells (D) following treatment with SCR116 and SCR132 for 24 h. and FIG. 8E, F are scatter plot depicting quantification of percentage of 53BP1 foci treated with SCR116 (2, 5 μM) and SCR132 (1, 2 μM) in Nalm6 and N114.

[3] = test system: V(D)J recombination in Nalm6 (pGG49); assay: V(D)J recombination in Nalm6 using pGG49; format: cell-based; settings: for Fold reduction in recombination efficiency: vs vehicle control
Method: (§4) Evaluation of efficiency of V(D)J recombination following treatment with SCR116 and SCR132 was carried out as depicted in FIGS. 6(A-C). Tables 4 and 5 summarize the effect of SCR116 (1 and 2 μM) and SCR132 (0.5 and 1 μM) on V(D)J recombination in Nalm6 using pGG49 and pGG51, respectively.

Reh = assay: Cytotoxicity in Reh; format: cell-based; settings: 48 h
Method: as §3, §1

HCT116 derived xenograft = assay: Mouse xenograft model, HCT116; format: in vivo
SCC131 derived xenograft = assay: Mouse xenograft model, SCC131; format: in vivo; settings: oral cancer SCC131 xenograft; 8 oral doses
CEM = assay: Cytotoxicity in CEM; format: cell-based; settings: Homo sapiens, CCRF-CEM; Table 2; read-out: IC50 in cancer cell lines, CEM
Method: as §1

U118 = assay: Cytotoxicity in U118; format: cell-based; settings: Table 2; read-out: IC50 in cancer cell lines, U118
Method: as §1

Nalm6 = assay: Cytotoxicity (viable cells) in Nalm6; format: cell-based; settings: Homo sapiens, NALM-6, read-out: IC50 in cancer cell lines, Nalm6
Method: as §3, §1

[4] = test system: V(D)J recombination in Nalm6 (pGG51); assay: V(D)J recombination in Nalm6 using pGG51; format: cell-based; settings: for Fold reduction in recombination efficiency: vs vehicle control
Method: as §4

[5] = Homo sapiens, HeLa, 48 h, Table 1, 48 h
[6] = Homo sapiens, REH, Table 2, read-out: IC50 in cancer cell lines, Reh

T1 sequence (P49916 43-1009): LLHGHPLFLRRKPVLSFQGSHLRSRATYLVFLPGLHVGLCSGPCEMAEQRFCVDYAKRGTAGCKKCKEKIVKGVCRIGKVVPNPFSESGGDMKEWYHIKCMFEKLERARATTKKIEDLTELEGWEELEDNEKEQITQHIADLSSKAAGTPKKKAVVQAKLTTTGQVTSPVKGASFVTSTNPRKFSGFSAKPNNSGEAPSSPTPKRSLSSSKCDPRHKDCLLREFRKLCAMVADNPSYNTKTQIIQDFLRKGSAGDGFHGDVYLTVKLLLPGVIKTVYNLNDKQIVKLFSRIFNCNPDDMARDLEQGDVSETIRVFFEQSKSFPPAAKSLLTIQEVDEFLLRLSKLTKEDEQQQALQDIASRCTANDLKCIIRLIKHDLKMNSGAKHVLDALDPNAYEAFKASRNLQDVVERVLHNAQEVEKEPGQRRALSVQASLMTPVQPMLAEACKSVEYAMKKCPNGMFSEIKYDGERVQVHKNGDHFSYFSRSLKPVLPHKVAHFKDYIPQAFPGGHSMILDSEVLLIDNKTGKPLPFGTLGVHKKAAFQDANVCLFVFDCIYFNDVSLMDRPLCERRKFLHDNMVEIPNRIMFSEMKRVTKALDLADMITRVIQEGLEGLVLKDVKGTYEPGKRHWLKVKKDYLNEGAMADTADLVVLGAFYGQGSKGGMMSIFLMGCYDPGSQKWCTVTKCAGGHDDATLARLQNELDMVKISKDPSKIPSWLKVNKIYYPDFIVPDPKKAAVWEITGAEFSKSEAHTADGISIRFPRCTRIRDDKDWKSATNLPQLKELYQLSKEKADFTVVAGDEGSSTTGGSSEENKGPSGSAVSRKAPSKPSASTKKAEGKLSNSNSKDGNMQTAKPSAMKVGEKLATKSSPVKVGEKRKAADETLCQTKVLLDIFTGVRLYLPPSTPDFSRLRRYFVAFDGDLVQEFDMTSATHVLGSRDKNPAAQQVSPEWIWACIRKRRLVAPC
T1 sequence (P18887 whole entry partner): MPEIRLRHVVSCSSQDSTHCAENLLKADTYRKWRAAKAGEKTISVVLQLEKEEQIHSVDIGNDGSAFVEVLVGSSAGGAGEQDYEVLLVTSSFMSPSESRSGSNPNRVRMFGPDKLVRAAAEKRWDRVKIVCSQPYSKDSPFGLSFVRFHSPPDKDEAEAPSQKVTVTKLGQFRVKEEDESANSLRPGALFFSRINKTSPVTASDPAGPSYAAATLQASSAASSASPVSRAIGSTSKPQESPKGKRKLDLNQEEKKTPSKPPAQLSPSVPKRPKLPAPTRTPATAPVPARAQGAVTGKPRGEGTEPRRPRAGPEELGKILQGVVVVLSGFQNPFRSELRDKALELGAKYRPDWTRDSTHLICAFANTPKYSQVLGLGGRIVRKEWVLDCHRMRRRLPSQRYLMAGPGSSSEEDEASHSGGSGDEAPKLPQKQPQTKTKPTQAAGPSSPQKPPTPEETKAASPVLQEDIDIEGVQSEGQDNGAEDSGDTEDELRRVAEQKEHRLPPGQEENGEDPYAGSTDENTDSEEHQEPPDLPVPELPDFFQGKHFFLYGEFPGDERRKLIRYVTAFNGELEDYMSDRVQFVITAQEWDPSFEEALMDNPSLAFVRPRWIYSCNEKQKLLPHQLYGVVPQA

Compound | IC50 (HCT116) [nM] | Tumor burden [1] | IC50 (L1210) [nM] | IC50 (HeLa; [5]) [nM] | IC50 (HeLa; Homo sapiens, HeLa, Table 2) [nM] | Inhibition of end joining with Ligase III/XRCC1 (Ligase III/XRCC1) | DNA in the tail of the comet (HeLa cells) | Recombination efficiency (CA/A) ×100 ([3]; 1 μM) | Fold reduction in recombination efficiency ([3]; 1 μM) [fold] | Fold difference of IC50 in Reh to that of SCR7 (Reh) [fold] | IC50 (Reh; [6]) [nM] | Tumor volume (HCT116 derived xenograft) | Tumor volume (SCC131 derived xenograft) | IC50 (CEM) [nM] | IC50 (U118) [nM] | IC50 (Nalm6; Table 1, 48 h) [nM] | IC50 (Nalm6; Table 2) [nM] | Recombination efficiency (CA/A) ×100 ([4]; 1 μM) | other results
Nc1nc(S)nc(O)c1/N=C/c1sc(Cl)nc1Cl [Compound 32, (E)-6-amino-5-(((2,4-dichlorothiazol-5-yl)methylene)amino)-2-mercaptopyrimidin-4-ol] | 2000 | reduced tumor burden | 879 | 2080 | 2000 | no significant inhibition | increased amount of DNA in the tail of the comet | 0.009 | 31.1 | > 250 | 690 | significant reduction in tumor volume | significant reduction in tumor volume | 3830 | 4100 | 1790 | 1790 | 0.003 | Tumor size ([1]; selected oral dose 15 mg/kg): significant reduction in tumor size; Tumor progression ([2]; 5 mg/kg): inhibition of tumor progression; Tumor load ([2]; 5 and 15 mg/kg): reduced tumor load; Tumor size ([2]; selected oral dose 15 mg/kg): significant reduction in tumor size; IC50 (HeLa; Table 2, listed as SCR132): 2080 nM; Recombination efficiency (CA/A) ×100 ([3]; 0.5 μM): 0.030; Fold reduction in recombination efficiency ([3]; 0.5 μM): 9.3 fold; IC50 (Reh; Homo sapiens, REH, read-out: IC50 in Reh cells): 690 nM; Recombination efficiency (CA/A) ×100 ([4]; 0.5 μM): 0.006; Fold reduction in recombination efficiency ([4]; 0.5 μM, listed as SCR132): 50 fold and 50.0 fold; Fold reduction in recombination efficiency ([4]; 1 μM, listed as SCR132): 106 fold and 106.6 fold
Nc1nc(S)nc(O)c1/N=C/c1ccc([N+](=O)[O-])s1 [Compound 16, (E)-6-amino-2-mercapto-5-(((5-nitrothiophen-2-yl)methylene)amino)pyrimidin-4-ol] | 5200 | reduced tumor burden | 3750 | 5920 | 5000 | inhibited end joining at highest concentrations of 500 and 1000 μM | increased amount of DNA in the tail of the comet | 0.050 | 5.2 | > 100 | 2300 | significant reduction in tumor volume | significant reduction in tumor volume | 5770 | 5600 | 3440 | 3440 | 0.030 | Tumor size ([1]; selected oral dose 10 mg/kg): significant reduction in tumor size; Tumor progression ([2]; 10 mg/kg): inhibition of tumor progression; Tumor load ([2]; 10 and 30 mg/kg): reduced tumor load; Tumor size ([2]; selected oral dose 10 mg/kg): significant reduction in tumor size; Recombination efficiency (CA/A) ×100 ([3]; 2 μM): 0.013; Fold reduction in recombination efficiency ([3]; 2 μM, listed as SCR116): 20 fold and 20.0 fold; IC50 (Reh; Table 2, listed as SCR116, read-out: IC50 in cancer cell lines, Reh): 2340 nM; Fold reduction in recombination efficiency ([4]; 1 μM, listed as SCR116): 9 fold and 9.0 fold; Recombination efficiency (CA/A) ×100 ([4]; 2 μM): 0.005; Fold reduction in recombination efficiency ([4]; 2 μM, listed as SCR116): 54 fold and 54.0 fold
